Assay results taken from patent US11299487B2, “Compounds and compositions as modulators of TLR signaling” (Neuropore Therapies, Inc., priority 2019, dated 2022).
Where two headings read alike, the source gives them in different places.

Columns and labels:
Format in all cases: cell-based
human TLR2 [1] = target: T1, human TLR2 (Homo sapiens, UniProt O60603); experiment: HEK-Blue hTLR2 antagonism assay (SEAP reporter) with agonist Pam2CSK4 (TLR2/6 agonist); conditions: HEK-Blue hTLR2 cells, ~3×EC50 Pam2CSK4, 18 h, SEAP OD 655 nm, 8-point dilutions
T1 construct: host or cells: HEK-Blue hTLR2 (HEK-293)
T1 sequence (O60603 21-784): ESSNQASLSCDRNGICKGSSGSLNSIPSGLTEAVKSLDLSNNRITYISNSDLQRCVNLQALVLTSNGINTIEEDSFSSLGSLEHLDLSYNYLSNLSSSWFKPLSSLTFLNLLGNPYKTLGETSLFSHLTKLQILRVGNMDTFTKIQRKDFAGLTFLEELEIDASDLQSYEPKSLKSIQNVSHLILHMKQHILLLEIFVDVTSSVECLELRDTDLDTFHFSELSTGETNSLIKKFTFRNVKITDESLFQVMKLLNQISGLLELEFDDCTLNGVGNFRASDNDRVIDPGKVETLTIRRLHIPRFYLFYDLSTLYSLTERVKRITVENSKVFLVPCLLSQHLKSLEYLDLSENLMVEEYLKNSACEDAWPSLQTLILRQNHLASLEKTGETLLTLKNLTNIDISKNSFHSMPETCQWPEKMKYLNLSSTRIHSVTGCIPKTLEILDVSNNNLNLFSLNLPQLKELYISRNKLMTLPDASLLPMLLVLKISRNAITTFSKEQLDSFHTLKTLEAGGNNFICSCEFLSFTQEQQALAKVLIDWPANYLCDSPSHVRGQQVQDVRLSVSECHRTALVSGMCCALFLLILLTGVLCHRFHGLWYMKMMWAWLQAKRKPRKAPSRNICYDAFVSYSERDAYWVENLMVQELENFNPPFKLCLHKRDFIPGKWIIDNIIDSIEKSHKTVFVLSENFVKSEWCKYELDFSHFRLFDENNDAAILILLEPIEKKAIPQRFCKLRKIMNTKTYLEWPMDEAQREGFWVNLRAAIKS

human TLR2 [2] = target: T1, human TLR2; experiment: HEK-Blue hTLR2 antagonism assay (SEAP reporter) with agonist Pam3CSK4 (TLR1/2 agonist); conditions: HEK-Blue hTLR2 cells, ~3×EC50 Pam3CSK4, 18 h, SEAP OD 655 nm, 8-point dilutions
human TLR9 = target: T2, human TLR9 (Homo sapiens, UniProt Q9NR96); experiment: HEK-Blue hTLR9 assay (SEAP reporter) with agonist ODN 2006; conditions: HEK-Blue hTLR9 cells, ~3×EC50 ODN 2006, 18 h, exact values 8-point dilutions, approximate (~ or <) 4-point dilutions, read-out: ~IC50 (μM) with ODN2006
T2 construct: host or cells: HEK-Blue hTLR9 (HEK-293)
T2 sequence (Q9NR96 26-1032): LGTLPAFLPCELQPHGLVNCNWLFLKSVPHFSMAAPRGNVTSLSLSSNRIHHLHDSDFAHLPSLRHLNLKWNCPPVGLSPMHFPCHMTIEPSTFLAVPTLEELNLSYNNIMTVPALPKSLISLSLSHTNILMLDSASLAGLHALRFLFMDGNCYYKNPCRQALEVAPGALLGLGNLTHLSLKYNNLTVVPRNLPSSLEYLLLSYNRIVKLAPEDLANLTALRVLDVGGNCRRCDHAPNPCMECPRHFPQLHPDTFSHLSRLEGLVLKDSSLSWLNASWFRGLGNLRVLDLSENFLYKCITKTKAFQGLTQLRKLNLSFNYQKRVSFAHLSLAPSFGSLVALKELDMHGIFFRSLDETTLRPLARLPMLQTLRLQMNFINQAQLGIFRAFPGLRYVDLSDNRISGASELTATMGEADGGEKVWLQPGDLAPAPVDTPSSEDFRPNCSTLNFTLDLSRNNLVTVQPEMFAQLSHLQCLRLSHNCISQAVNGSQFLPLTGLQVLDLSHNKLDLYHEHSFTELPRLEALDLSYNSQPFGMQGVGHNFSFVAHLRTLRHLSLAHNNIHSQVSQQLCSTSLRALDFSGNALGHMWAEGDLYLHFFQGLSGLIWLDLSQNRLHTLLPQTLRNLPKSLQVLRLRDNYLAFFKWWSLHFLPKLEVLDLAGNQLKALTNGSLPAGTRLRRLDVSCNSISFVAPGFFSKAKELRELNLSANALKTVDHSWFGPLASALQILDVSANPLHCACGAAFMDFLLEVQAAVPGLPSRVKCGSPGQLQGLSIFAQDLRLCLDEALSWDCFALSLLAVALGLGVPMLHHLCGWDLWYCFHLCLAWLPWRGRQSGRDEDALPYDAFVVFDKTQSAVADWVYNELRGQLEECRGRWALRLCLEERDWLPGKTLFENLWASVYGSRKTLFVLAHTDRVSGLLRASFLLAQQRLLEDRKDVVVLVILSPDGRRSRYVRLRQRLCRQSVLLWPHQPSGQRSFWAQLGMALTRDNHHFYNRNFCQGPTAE
Protocol: Synthetic ODNs (ODN 2006 (ODN7909), class B CpG oligonucleotide, TLR9 agonist) was obtained from InvivoGen and was dissolved in endotoxin-free water to a concentration 500 μM, vortexed until complete solubilization, and stored in aliquots at −20° C. Prior to addition to cells, an aliquot of the dissolved ligand was vortexed shortly and then was diluted in medium to 50 μM. The EC50 of the agonist for each assay run was determined by using 3-fold dilutions from the starting concentration 10 μM.
Test compounds were solubilized fresh to 10-20 mM stocks in DMSO and sonicated for 5-10 minutes in a water bath sonicator. Serial dilutions were prepared in DMSO, and then diluted in medium. The final concentration of DMSO used in the assay was 1%.
HEK-Blue hTLR9 reporter cells (InvivoGen) are HEK-293 cells stably expressing both the human TLR9 gene and a secreted embryonic alkaline phosphatase (SEAP) reporter construct downstream of NFκB promotor sites. HEK-Blue hTLR9 cells were cultured according to manufacturer's protocol using Dulbecco's Modified Eagle Medium (DMEM; Gibco) containing 1× GlutaMax (Gibco), 10% heat-inactivated Fetal Bovine Serum (Gibco), Pen-Strep (50 U/mL penicillin, 50 μg/mL streptomycin, Gibco), 100 μg/mL Normocin (InvivoGen), and the selective antibiotics, 10 μg/mL Blasticidin (InvivoGen), and 100 μg/mL Zeocin (InvivoGen). Quanti-Blue reagent (InvivoGen) for detection and quantification of secreted alkaline phosphatase was dissolved in 100 mL of endotoxin-free water, warmed to 37° C. for 30 minutes and then filtered using a 0.2 μm membrane.
On day 1, 50 μL of each test compound dilution in duplicates or a vehicle control was added to each well of a 96-well plate followed by addition of 150 μL of HEK-Blue hTLR9 cell suspension (1×10^5 cells/well) and incubated at 37° C./5% CO2 for 2 h. Next, 50 μL of an approximate 3×EC50 concentration of TLR9 agonist, ODN 2006, was added to the wells containing test compounds or the vehicle control. The plates were then incubated at 37° C./5% CO2 for 18 h. For each assay run, vehicle-treated HEK-Blue hTLR9 cells were treated with serial dilutions of agonist to determine EC50 values for the respective run.
On day 2, secreted alkaline phosphatase (SEAP) activity was detected in cell culture supernatants. In brief, 30 μL was collected from each well and transferred to a 96-well plate. Next, 200 μL of Quanti-Blue detection reagent was added to each well. Plates were incubated at 37° C. for 60 min. and SEAP activity was assessed by spectrophotometer OD reading at 655 nm. Table A and Table B show the activities of the compounds tested in HEK-Blue hTLR9 cells against ODN 2006. The activities of the compounds against ODN 2006 are presented as IC50 values which were defined as concentrations of the compounds where percent inhibition of the signal induced by agonist is equal to 50. Exact IC50 values were calculated based on 8-point dilutions for each compound. Approximate IC50 values (˜ or <) were calculated based on 4-point dilutions for each compound.

| IC50 (human TLR2 [1]; Table B) | IC50 (human TLR2 [2]; Table B) | IC50 (human TLR9; Table B) | IC50 (human TLR2 [1]; Table A) | IC50 (human TLR2 [2]; Table A) | IC50 (human TLR9; Table A) | Compound |
| --- | --- | --- | --- | --- | --- | --- |
| 0.6 µM | 0.3 µM | 0.3 µM |  |  |  | CC1(C)CCN(c2ccc(NC(=O)c3cc(F)c(O)c(C=O)c3)cc2)C1 [Compound B73, N-(4-(3,3-dimethylpyrrolidin-1-yl)phenyl)-3-fluoro-5-formyl-4-hydroxybenzamide] |
|  |  |  | 0.4 µM | 0.3 µM | 0.1 µM | O=Cc1cc(-n2cc(-c3ccc(N4CCCC4)cc3)nn2)cc(F)c1O [Compound A42, 3-fluoro-2-hydroxy-5-(4-(4-(pyrrolidin-1-yl)phenyl)-1H-1,2,3-triazol-1-yl)benzaldehyde] |
|  |  |  | 3.8 µM | 2.1 µM | < 1.2 µM | O=Cc1cc(-c2cnc(-c3ccccc3)s2)cc(F)c1O [Compound A91, 3-fluoro-2-hydroxy-5-(2-phenylthiazol-5-yl)benzaldehyde] |
| 6.3 µM | 2.7 µM | ~1.5 µM |  |  |  | O=Cc1c(O)cc(C#Cc2ccc(N3CCCC3)cc2)cc1F [Compound B4, 2-fluoro-6-hydroxy-4-((4-(pyrrolidin-1-yl)phenyl)ethynyl)benzaldehyde] |
| 3.5 µM | 1 µM | < 1.2 µM |  |  |  | O=Cc1cc(C(=O)Nc2ccc(N3CCC(F)(F)CC3)cc2)cc(F)c1O [Compound B68, N-(4-(4,4-difluoropiperidin-1-yl)phenyl)-3-fluoro-5-formyl-4-hydroxybenzamide] |
| 13 µM | 6 µM | ~4.7 µM |  |  |  | O=Cc1cc(C(=O)Nc2ccc(N3C[C@H]4COC[C@H]4C3)cc2)cc(F)c1O [Compound B75, 3-fluoro-5-formyl-4-hydroxy-N-(4-((3aR,6aS)-tetrahydro-1H-furo[3,4-c]pyrrol-5(3H)-yl)phenyl)benzamide] |
|  |  |  | 1 µM | 0.7 µM | ~1.2 µM | O=Cc1cc(-n2cc(-c3cccc(N4CCCC4)c3)nn2)cc(F)c1O [Compound A44, 3-fluoro-2-hydroxy-5-(4-(3-(pyrrolidin-1-yl)phenyl)-1H-1,2,3-triazol-1-yl)benzaldehyde] |
|  |  |  | 1.9 µM | 1.2 µM | ~3 µM | COc1cc(-c2ccn(-c3ccccc3)n2)cc(C=O)c1O [Compound A25, 2-hydroxy-3-methoxy-5-(1-phenyl-1H-pyrazol-3-yl)benzaldehyde] |
|  |  |  | > 100 µM | > 100 µM | > 33 µM | COc1cc(-c2cnn(-c3ccccc3)c2)cc(O)c1F [Compound A16, 2-fluoro-3-methoxy-5-(1-phenyl-1H-pyrazol-4-yl)phenol] |
|  |  |  | > 100 µM | > 100 µM | > 33 µM | Oc1c(F)cc(-c2cnn(-c3ccccc3)c2)cc1Cl [Compound A15, 2-chloro-6-fluoro-4-(1-phenyl-1H-pyrazol-4-yl)phenol] |
|  |  |  | 85.5 µM | > 100 µM | > 33 µM | COc1cc(-c2cnn(Cc3ccccn3)c2)cc(C=O)c1O [Compound A8, 2-hydroxy-3-methoxy-5-(1-(pyridin-2-ylmethyl)-1H-pyrazol-4-yl)benzaldehyde] |
|  |  |  | > 100 µM | > 100 µM | > 33 µM | Cc1cc(-c2cnn(-c3ccccc3)c2)cc(C#N)c1O [Compound A12, 2-hydroxy-3-methyl-5-(1-phenyl-1H-pyrazol-4-yl)benzonitrile] |
| 1.6 µM | 0.8 µM | < 1.2 µM |  |  |  | O=Cc1cc(C(=O)Nc2ccc(N3CC4CC4C3)cc2)cc(F)c1O (stereo not drawn) [Compound B74, N-(4-(3-azabicyclo[3.1.0]hexan-3-yl)phenyl)-3-fluoro-5-formyl-4-hydroxybenzamide] |
|  |  |  | 0.6 µM | 0.4 µM | 0.2 µM | O=Cc1cc(-c2cnc(-c3ccc(N4CCCC4)cc3)s2)cc(F)c1O [Compound A55, 3-fluoro-2-hydroxy-5-(2-(4-(pyrrolidin-1-yl)phenyl)thiazol-5-yl)benzaldehyde] |
| 0.6 µM | 0.3 µM | < 1.2 µM |  |  |  | O=Cc1cc(C(=O)Nc2ccc(N3CC4(CCC4)C3)cc2)cc(F)c1O [Compound B77, N-(4-(2-azaspiro[3.3]heptan-2-yl)phenyl)-3-fluoro-5-formyl-4-hydroxybenzamide] |
| 12.7 µM | 6.6 µM | ~2.9 µM |  |  |  | O=Cc1cc(S(=O)(=O)Nc2ccc(N3CCCC3)cc2)cc(F)c1O [Compound B17, 3-fluoro-5-formyl-4-hydroxy-N-(4-(pyrrolidin-1-yl)phenyl)benzenesulfonamide] |
| 3.3 µM | 1.2 µM | < 1.2 µM |  |  |  | O=Cc1cc(C(=O)Nc2ccc(N3CCC(F)(F)C3)cc2)cc(F)c1O [Compound B67, N-(4-(3,3-difluoropyrrolidin-1-yl)phenyl)-3-fluoro-5-formyl-4-hydroxybenzamide] |
| 3.7 µM | 2.2 µM | < 1.2 µM |  |  |  | O=Cc1cc(C#Cc2ccc(N3CCOCC3)cc2)cc(F)c1O [Compound B3, 3-fluoro-2-hydroxy-5-((4-morpholinophenyl)ethynyl)benzaldehyde] |
|  |  |  | 42.2 µM | 42.6 µM | > 33 µM | Cc1cc(-c2cnn(-c3ccccc3)c2)cc(O)c1F [Compound A14, 2-fluoro-3-methyl-5-(1-phenyl-1H-pyrazol-4-yl)phenol] |
|  |  |  | 4 µM | 3.6 µM | ~4 µM | CN1CCN(/N=C/c2cc(-c3ccn(-c4ccccc4)n3)cc(F)c2O)CC1 [Compound A33, (E)-2-fluoro-6-(((4-methylpiperazin-1-yl)imino)methyl)-4-(1-phenyl-1H-pyrazol-3-yl)phenol] |
|  |  |  | 0.9 µM | 0.9 µM | > 10 µM | O=Cc1cc(-c2cnn(-c3cccc(N4CCCC4)c3)c2)cc(F)c1O [Compound A22, 3-fluoro-2-hydroxy-5-(1-(3-(pyrrolidin-1-yl)phenyl)-1H-pyrazol-4-yl)benzaldehyde] |
